Measurements from patent publication US20230365537A1, “POLO LIKE KINASE 4 INHIBITORS” (ORIC Pharmaceuticals, Inc., priority 2021, published 2023).
pIC50: −log10 of the molar value.

Tests used:
[1] = biological target: human recombinant Aurora A (Homo sapiens (Human), UniProt O14965); assay: Aurora A Kinase Biochemical Assay (ADP-Glo); conditions: ratio of Aurora A IC50 to PLK4 IC50 (selectivity)
Description: (§1) Activity of human recombinant Aurora A (ThermoFisher, cat #PR5935A) was measured by quantification of adenosine diphosphate (ADP) using the ADP-Glo Kinase Assay Kit (Promega, cat #V9102). […] 5 µL of 5.0 nM Aurora A in assay buffer (50 mM HEPES, pH 7.5, 0.01% Brij-35, 0.01% BSA, 10 mM MgCl2, 1 mM EGTA, 1 mM DTT) was added to the plates. Test compounds and Aurora A were incubated for 15 minutes at room temperature (RT). […] Reactions were stopped and the remaining ATP depleted by adding 10uL of ADP-Glo reagent (Promega, cat#V912B) and incubating for 40 minutes at RT. The simultaneous conversion of the remaining ADP to ATP and measurement of the newly synthesized ATP was achieved by addition of 20 µL Kinase Detection reagent (Promega, cat #V914B), incubation for 30 min at RT, and luminescence detection using the EnVision plate reader (PerkinElmer). […] The IC50 values reported in Table 2 were determined using four parameter non-linear regression curve fit.

[2] = biological target: human recombinant Aurora B (Homo sapiens (Human), UniProt Q96GD4); assay: Aurora B Kinase Biochemical Assay (ADP-Glo); conditions: ratio of Aurora B IC50 to PLK4 IC50 (selectivity)
Chain of human recombinant Aurora B (Q96GD4 whole entry): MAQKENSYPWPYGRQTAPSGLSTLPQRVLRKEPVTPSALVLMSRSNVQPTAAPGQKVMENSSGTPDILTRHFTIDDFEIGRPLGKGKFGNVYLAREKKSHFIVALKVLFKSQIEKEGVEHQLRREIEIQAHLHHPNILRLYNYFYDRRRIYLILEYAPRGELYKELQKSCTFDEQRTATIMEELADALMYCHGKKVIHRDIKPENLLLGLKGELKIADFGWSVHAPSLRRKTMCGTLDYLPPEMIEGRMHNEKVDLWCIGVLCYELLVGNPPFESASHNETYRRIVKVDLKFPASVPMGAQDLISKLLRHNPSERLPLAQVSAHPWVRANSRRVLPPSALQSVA
Description: as §1, with “Aurora B” for “Aurora A”, “cat #PR9210B)” for “cat #PR5935A)”, “of 20” for “of 5.0”

human recombinant PLK4 = human recombinant PLK4 (Homo sapiens (Human), UniProt O00444); assay: PLK4 Biochemical Assay (ADP-Glo); conditions: 0.5 nM PLK4, 8.0 µM ATP, 4.7 µM MBP, 6 hours at RT
Chain of human recombinant PLK4 (O00444 whole entry): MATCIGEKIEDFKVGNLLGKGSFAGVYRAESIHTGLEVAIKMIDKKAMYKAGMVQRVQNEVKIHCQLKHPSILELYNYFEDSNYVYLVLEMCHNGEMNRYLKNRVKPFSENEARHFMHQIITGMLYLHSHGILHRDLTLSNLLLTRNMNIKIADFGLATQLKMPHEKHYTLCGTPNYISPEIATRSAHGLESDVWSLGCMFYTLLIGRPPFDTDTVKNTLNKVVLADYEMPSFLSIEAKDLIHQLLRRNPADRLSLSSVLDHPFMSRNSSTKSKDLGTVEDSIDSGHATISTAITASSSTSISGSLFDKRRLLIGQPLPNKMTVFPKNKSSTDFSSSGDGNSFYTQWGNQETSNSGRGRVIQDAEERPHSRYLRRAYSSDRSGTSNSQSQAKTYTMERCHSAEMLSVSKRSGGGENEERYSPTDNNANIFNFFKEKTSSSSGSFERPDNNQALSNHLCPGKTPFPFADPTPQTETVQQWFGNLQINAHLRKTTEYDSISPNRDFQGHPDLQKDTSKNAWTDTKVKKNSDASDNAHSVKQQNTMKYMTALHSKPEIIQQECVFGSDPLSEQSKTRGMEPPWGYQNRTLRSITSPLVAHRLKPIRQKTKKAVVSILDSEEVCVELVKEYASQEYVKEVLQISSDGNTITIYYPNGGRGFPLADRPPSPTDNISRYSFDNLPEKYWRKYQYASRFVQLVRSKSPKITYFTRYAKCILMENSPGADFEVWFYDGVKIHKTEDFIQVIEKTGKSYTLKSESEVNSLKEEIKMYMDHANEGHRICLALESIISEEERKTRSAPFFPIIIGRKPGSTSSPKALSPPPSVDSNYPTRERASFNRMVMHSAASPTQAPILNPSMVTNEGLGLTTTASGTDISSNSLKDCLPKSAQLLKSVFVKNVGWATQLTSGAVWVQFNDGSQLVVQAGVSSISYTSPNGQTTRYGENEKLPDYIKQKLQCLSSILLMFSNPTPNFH
Description: as §1, with “recombinant PLK4” for “recombinant Aurora A”, “cat #PV6396)” for “cat #PR5935A)”, “of 1.0” for “of 5.0”, “nM PLK4 protein” for “nM Aurora A”, “and PLK4” for “and Aurora A”, “adding 10 µL” for “adding 10uL”

Chain of human recombinant Aurora A (O14965 whole entry): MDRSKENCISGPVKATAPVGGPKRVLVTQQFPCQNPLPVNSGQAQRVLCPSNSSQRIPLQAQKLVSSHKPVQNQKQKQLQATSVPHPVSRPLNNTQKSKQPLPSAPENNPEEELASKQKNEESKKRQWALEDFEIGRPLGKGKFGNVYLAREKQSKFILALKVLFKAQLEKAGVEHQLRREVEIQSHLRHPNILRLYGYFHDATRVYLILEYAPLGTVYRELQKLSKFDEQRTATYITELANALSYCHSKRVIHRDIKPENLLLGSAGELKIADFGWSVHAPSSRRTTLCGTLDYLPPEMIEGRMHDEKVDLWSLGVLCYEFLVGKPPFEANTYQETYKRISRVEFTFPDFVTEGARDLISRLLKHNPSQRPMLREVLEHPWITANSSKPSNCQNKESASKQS

Structure (SMILES)	[Aurora A IC50 (nM)]/[PLK4 IC50 (nM)] [1]	[Aurora B IC50 (nM)]/[PLK4 IC50 (nM)] [2]	pIC50 (human recombinant PLK4)
COc1ccc2c(c1)[C@]1(C[C@H]1c1ccc3c(Nc4ncnc(N5CC(O)C5)c4OC)n[nH]c3c1)C(=O)N2 [Example 43, (1R,2S)-2-(3-{[6-(3-hydroxyazetidin-1-yl)-5-methoxypyrimidin-4-yl]amino}-1H-indazol-6-yl)-5′-methoxyspiro[cyclopropane-1,3′-indol]-2′(1′H)-one]	1347.136	21.9	7.84
COc1ccc2c(c1)[C@]1(C[C@H]1c1ccc3c(Nc4ncnc(N5CCCOCC5)c4OC)n[nH]c3c1)C(=O)N2 [Example 44, (1R,2S)-5′-methoxy-2-(3-{[5-methoxy-6-(1,4-oxazepan-4-yl)pyrimidin-4-yl]amino}-1H-indazol-6-yl)spiro[cyclopropane-1,3′-indol]-2′(1′H)-one]	1269.119	45.11	7.68
COc1ccc2c(c1)[C@]1(C[C@H]1c1ccc3c(Nc4cc(N5CCC5)ncn4)n[nH]c3c1)C(=O)N2 [Example 45, (1R,2S)-2-(3-{[6-(azetidin-1-yl)pyrimidin-4-yl]amino}-1H-indazol-6-yl)-5′-methoxyspiro[cyclopropane-1,3′-indol]-2′(1′H)-one]	137.8309	4.603	7.81
COc1ccc2c(c1)[C@]1(C[C@H]1c1ccc3c(Nc4nc(Cl)c(OC)c(N5CCOCC5)n4)n[nH]c3c1)C(=O)N2 [Example 49, (1R,2S)-2-(3-{[4-chloro-5-methoxy-6-(morpholin-4-yl)pyrimidin-2-yl]amino}-1H-indazol-6-yl)-5′-metboxyspiro[cydopropane-1,3′-indol]-2′(1′H)-one]	253.4031	53.19	7.72
COc1ccc2c(c1)[C@]1(C[C@H]1c1ccc3c(Nc4cn(CCO)nc4OC)n[nH]c3c1)C(=O)N2 [Example 50, (1R,2S)-2-(3-{[1-(2-hydroxyethyl)-3-methoxy-1H-pyrazol-4-yl]amino}-1H-indazol-6-yl)-S′-methoxyspiro[cyclopropane-1,3′-indol]-2′(1′H)-one]	361.809	27.4923	7.21
COc1ccc2c(c1)[C@]1(C[C@H]1c1ccc3c(Nc4ncnc(N5CCS(=O)(=O)CC5)c4Cl)n[nH]c3c1)C(=O)N2 [Example 53]	4028.777	251.7986	8.90
COc1ccc2c(c1)[C@]1(C[C@H]1c1ccc3c(Nc4ncc(CCO)nc4OC)n[nH]c3c1)C(=O)N2 [Example 55, (lR,2S)-2-(3-{[5-(2-hydroxyethyl)-3-methoxypyrazin-2-yl]amino}-1H-indazol-6-yl)-5′-methozyspiro[cyclopropano-1,3′-indol]-2′(1′H)-one]	3251.804	17.9	8.90
COc1ccc2c(c1)[C@]1(C[C@H]1c1ccc3c(Nc4cc(N5CCS(=O)(=O)CC5)nc(C5CC5)n4)n[nH]c3c1)C(=O)N2 [Example 59, (1R,2S)-2-(3-((2-cyclopropyl-6-(1,1-dioxidothiomorpholino)pyrimidin-4-yl)amino)-1H-indazol-6-yl)-5′-methoxyspiro[cyclopropane-1,3′-indolin]-2′-one]	108.4696	39.23	8.07
COc1ccc2c(c1)[C@]1(C[C@H]1c1ccc3c(Nc4cc(N5CCS(=O)(=O)CC5)nc(C)n4)n[nH]c3c1)C(=O)N2 [Example 60, (1R,2S)-2-(3-((6-(1,1-dioxidothiomorpholino)-2-methylpyrimidin-4-yl)amino)-1H-indazol-6-yl)-5′-methoxyspiro[cyclopropane-1,3′-indolin]-2′-one]	69.69	7.855	8.13
COc1ccc2c(c1)[C@]1(C[C@H]1c1ccc3c(Nc4cn(C)nc4C)n[nH]c3c1)C(=O)N2 [Example 63, (1R,2S)-2-{3-[(1,3-dimethyl-1H-pyrazol-4-yl)amino]-1H-indazol-6-yl}-5′-methoxyspiro[cyclopropane-1,3′-indol]-2′(1′H)-one]	56.84	16.69	7.14
COc1ccc2c(c1)[C@]1(C[C@H]1c1ccc3c(Nc4cn(C)nc4C(F)(F)F)n[nH]c3c1)C(=O)N2 [Example 64, (1R,2S)-5′-methoxy-2-(3-{[1-methyl-3-(trifluoromethyl)-1H-pyrazol-4-yl]amino)-1H-indazol-6-yl)spiro[cyclopropane-1,3′-indol]-2′(1′H)-one]	210.2116	98.84	7.06
COc1ccc2c(c1)[C@]1(C[C@H]1c1ccc3c(Nc4cnn(C)c4)n[nH]c3c1)C(=O)N2 [Example 65]	82.48	5.356	7.35
COc1ccc2c(c1)[C@]1(C[C@H]1c1ccc3c(Nc4cn(C)nc4C#N)n[nH]c3c1)C(=O)N2 [Example 66, 4-({6-[(1R,2S)-5′-methoxy-2′-oxo-1′,2′-dihydrospiro[cyclopropane-1,3′-indol]-2-yl]-1H-indazol-3-yl}amino)-1-methyl-1H-pyrazole-3-carbonitrile]	21.37	7.607	5.63
COc1ccc2c(c1)[C@]1(C[C@H]1c1ccc3c(Nc4cc(C)nn4C)n[nH]c3c1)C(=O)N2 [Example 74]	293.0556	37.14	8.48
COc1ccc2c(c1)[C@]1(C[C@H]1c1ccc3c(Nc4c(OC)cnn4C)n[nH]c3c1)C(=O)N2 [Example 75, (1R,2S)-5′-methoxy-2-{3-[(4-methoxy-1-methyl-1H-pyrazol-5-yl)amino]-1H-indazol-6-yl}spiro[cyclopropane-1,3′-indol]-2′(1′H)-one]	173.4097	23.28	6.80
COc1ccc2c(c1)[C@]1(C[C@H]1c1ccc3c(Nc4nn(C)cc4OC)n[nH]c3c1)C(=O)N2 [Example 79, (1R,2S)-5′-methoxy-2-{3-[(4-methoxy-1-methyl-1H-pyrazol-3-yl)amino]-1H-indazol-6-yl}spiro[cyclopropane-1,3′-indol]-2′(rH)-one]	210.5378	6.986	7.04
COc1ccc2c(c1)[C@]1(C[C@H]1c1ccc3c(Nc4nc(C)cnc4C)n[nH]c3c1)C(=O)N2.O=C(O)C(F)(F)F [Example 82, (1R,2S)-2-{3-[(3,6-dimethylpyrazin-2-yl)amino]-1H-indazol-6-yl}-5′-methoxyspiro[cyclopropane-1,3′-indol]-2′(1′H)-one]	187.8524	38.55	8.21
